Patent publication US8765211B2, “Method for coating metal implants with therapeutic mixtures” (Enbio Limited, priority 2009, dated 2014)

Experiments:
[1] = Elution of gentamicin sulphate from PLGA-coated, abrasively blasted porous beaded titanium hip stem in phosphate saline buffer (Abbott TDx/FLX); format: physicochemical; settings: Summit hip stem with Porocoat finish, GS plus PLGA overcoat, blasted with MCD/HA; immersed in 300 ml phosphate saline buffer
Method: This example describes the modification of an implantable titanium hip stem containing a porous beaded surface. A Summit hip stem (DePuy) with a Porocoat finish was used as the substrate. The active chosen for study was gentamicin sulphate (GS).
The stem was first coated GS by dissolving 0.6 g of GS in 10 ml of water and applying the solution to the surface drop wise. In total, 0.1575 g of GS was added to the surface. Once dry, a polymer overcoat was applied by adding a solution of PLGA (3.5 g of PLGA in 10 ml of dichloromethane) dropwise and allowing to dry The coated hip stem was then abrasively blasted as per WO2008/033867 to remove the outer layer of polymer. Blasting was carried out in a Comco Standard Lathe operating at a pressure of 100 psi. MCD abrasive grit (Supplied by Himed, New York) was used as the abrasive and HA (SAI, France) was used as the dopant. Each powder was fed in a separate stream at the surface at a pressure of 100 psi and with an offset distance of 15-25 mm. The blast device was moved over the surface at a speed of approximately 100 mm/sec.
Elution of the drug from the surface was evaluated by immersing the entire hip stem in 300 ml of phosphate saline buffer and measuring drug concentration in solution using an Abbott TDx/FLX system. […]

[2] = Elution of vancomycin from beaded Ti coupons with zero, one or two PLGA layers in PBS buffer (UV/VIS); format: physicochemical; settings: beaded Ti coupon
Method: A 25 mm diameter coupon with a sintered titanium beaded surface was used as the test substrate. […] Vancomycin was dissolved in water to produce a solution of 0.5 g/25 ml. 0.5 ml of this solution was then applied in droplet form to the surface of each sample coupon and allowed to dry in an oven at 40° C. This technique was repeated three times to give a total loading of 1.5 ml of the vancomycin solution per coupon.
PLGA polymer (2.5 g) was dissolved in 50 mL of dichloromethane solvent. The polymer solution was added to the surface of the drug loaded coupons in a dropwise fashion similar to that employed to deploy the drug. Again, three applications of 0.5 ml were applied to produce a single layer of polymer with sufficient time being allowed between each application to allow the solvent to evaporate.
To investigate the effect of polymer coating thickness, a second set of three PLGA solutions were applied to form a batch of samples with 6 applications of polymer in total. This produced a sample with twice the coating thickness and is therefore herein referred to as having two layers of polymer.
All samples were then treated with an abrasive blasting process as described in WO2008/033867. The equipment platform was a Comco Standard Lathe. Two nozzles were employed to deliver an abrasive and a dopant respectively. The abrasive chosen was MCD 106 microns (Himed, NY, USA) and the dopant was hydroxyapatite (25/60 microns, SAI, France). The abrasive was delivered at a pressure of 75 psi and the dopant was delivered at 90 psi. The substrate was moved at a speed of 13 mm/sec relative to the nozzles.
Drug elution studies were carried out in PBS buffer solution and drug concentrations were determined using an Agilent 8453 UV/VIS spectrophotometer system. The elution profile of samples with zero, one and two layers of polymer were determined over 48 hours and the % vancomycin elution was determined. […] In the absence of any polymer coating, the drug had effectively eluted form the surface within 30 minutes and no further elution was detected.

| duration of gentamicin release [1] [days] | time in which the bulk of the drug is released [1] | Compound | time by which the drug had effectively eluted from the surface ([2]; no polymer coating (zero layers)) [min] | time to complete elution ([2]; single layer of polymer (3 applications of PLGA)) | elution duration ([2]; twice the thickness of polymer (6 applications of PLGA, two layers)) [h] |
| --- | --- | --- | --- | --- | --- |
| 4 | within the first day | gentamicin sulphate | – | – | – |
| – | – | CN[C@H](CC(C)C)C(=O)N[C@H]1C(=O)N[C@@H](CC(N)=O)C(=O)N[C@H]2C(=O)N[C@H]3C(=O)N[C@H](C(=O)N[C@H](C(=O)O)c4cc(O)cc(O)c4-c4cc3ccc4O)[C@H](O)c3ccc(c(Cl)c3)Oc3cc2cc(c3O[C@@H]2O[C@H](CO)[C@@H](O)[C@H](O)[C@H]2O[C@H]2C[C@](C)(N)[C@H](O)[C@H](C)O2)Oc2ccc(cc2Cl)[C@H]1O [vancomycin] | ≤ 30 | up to 10 hours | 24 |
